Reference: patent US20070010566A1, “Thiazolidinones without basic nitrogen, their production and use as pharmaceutical agents” (priority 2005, published 2007)
pIC50: −log10 of the molar value.

Key:
[1] = target: T1, Recombinant human Plk-1 (6×His) (Homo sapiens, UniProt P53350); experiment: PLK enzyme assay (33P-γ-ATP incorporation in biotinylated casein, SPA); type: biochemical; conditions: recombinant human Plk-1, casein substrate, 0.5 μmol of ATP, 90 minutes at room temperature; read-out: PLK-1 IC50 [nM] Inhibition
T1 construct: 6×His; made in house; host or cells: baculovirus-infected insect cells (Hi5)
T1 sequence (P53350 whole entry): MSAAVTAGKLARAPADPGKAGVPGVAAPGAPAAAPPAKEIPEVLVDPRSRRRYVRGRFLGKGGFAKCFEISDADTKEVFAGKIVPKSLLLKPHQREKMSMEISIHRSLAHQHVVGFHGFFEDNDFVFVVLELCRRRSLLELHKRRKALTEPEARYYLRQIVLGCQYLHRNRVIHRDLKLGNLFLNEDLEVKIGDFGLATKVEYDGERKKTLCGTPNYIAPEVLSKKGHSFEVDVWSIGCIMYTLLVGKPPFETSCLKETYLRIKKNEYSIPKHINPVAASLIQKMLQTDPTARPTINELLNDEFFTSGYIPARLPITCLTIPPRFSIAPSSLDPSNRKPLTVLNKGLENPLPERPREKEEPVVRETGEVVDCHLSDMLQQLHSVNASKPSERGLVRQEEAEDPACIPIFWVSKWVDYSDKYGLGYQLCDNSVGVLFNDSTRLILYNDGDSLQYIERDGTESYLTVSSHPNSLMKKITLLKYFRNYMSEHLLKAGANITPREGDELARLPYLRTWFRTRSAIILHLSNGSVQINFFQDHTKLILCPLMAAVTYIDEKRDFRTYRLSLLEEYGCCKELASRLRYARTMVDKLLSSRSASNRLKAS
Method: Recombinant human Plk-1 (6×His) was purified from baculovirus-infected insect cells (Hi5).
10 ng of (produced in a recombinant manner and purified) PLK enzyme is incubated for 90 minutes at room temperature with biotinylated casein and 33P-γ-ATP as a substrate in a volume of 15 μl in 384-well Greiner small-volume microtiter plates (final concentrations in the buffer: 660 ng/ml of PLK; 0.7 μmol of casein, 0.5 μmol of ATP incl. 400 nCi/ml of 33P-γ-ATP; 10 mmol of MgCl2, 1 mmol of MnCl2; 0.01% NP40; 1 mmol of DTT, protease inhibitors; 0.1 mmol of Na2VO3 in 50 mmol of HEPES, pH 7.5). To complete the reaction, 5 μl of stop solution (500 μmol of ATP; 500 mmol of EDTA; 1% Triton X100; 100 mg/ml of streptavidin-coated SPA beads in PBS) is added. After the microtiter plate is sealed by film, the beads are sedimented by centrifuging (10 minutes, 1500 rpm). The incorporation of 33P-γ-ATP in casein is intended as a measurement of enzyme activity by β-counting.
Test substances are used in various concentrations (0 μmol, as well as in the range of 0.01-30 μmol). The final concentration of the solvent dimethyl sulfoxide is 1.5% in all batches.

[2] = test system: human MaTu breast tumour cells; experiment: Proliferation assay (crystal violet staining); type: cell-based; conditions: 96 h, incubated for 4 days with test substance, read-out: Inhibition of the Tumour Cell Proliferation (MaTu) IC50
Method: Cultivated human MaTu breast tumour cells were flattened out at a density of 5000 cells/measuring point in a 96-well multititer plate in 200 μl of the corresponding growth medium. After 24 hours, the cells of one plate (zero-point plate) were colored with crystal violet (see below), while the medium of the other plates was replaced by fresh culture medium (200 μl), to which the test substances were added at various concentrations (0 μm, as well as in the range of 0.01-30 μm; the final concentration of the solvent dimethyl sulfoxide was 0.5%). The cells were incubated for 4 days in the presence of test substances. The cell proliferation was determined by coloring the cells with crystal violet: the cells were fixed by adding 20 μl/measuring point of an 11% glutaric aldehyde solution for 15 minutes at room temperature. After three washing cycles of the fixed cells with water, the plates were dried at room temperature. The cells were colored by adding 100 μl/measuring point of a 0.1% crystal violet solution (pH was set at 3 by adding acetic acid). […] The extinction was determined by photometry at a wavelength of 595 nm. The change of cell growth, in percent, was calculated by standardization of the measured values to the extinction values of the zero-point plate (=0%) and the extinction of the untreated (0 μm) cells (=100%).

IC50 [1] [nM] | pIC50 [2] | SMILES
250 | 5.44 | CCn1c(=C(C#N)C(=O)NCC#N)sc(=Cc2nc[nH]c2C)c1=O [Example 8]
230 | 5.38 | CCn1c(=C(C#N)C(=O)NCC(F)(F)F)sc(=Cc2nc[nH]c2C)c1=O [Example 9]
